Columns and labels:
hSTING WT = target: T1, hSTING WT (Homo sapiens, UniProt Q86WV6, H232R); assay: Differential scanning fluorometry (DSF) binding to purified STING AA140-379, wild type; conditions: for hSTING Tm Shift WT: DSF, ligand 1 mM, 1 mg/ml STING AA140-379; for Tm shift compared with reference compound 2′3′-RR-(A)(A) / Tm shift compared with natural ligand 2′3′-(G)(A): for all three alleles (WT, HAQ, REF)
T1 construct: DNA encoding amino acids 140-379 (amino acid numbering corresponding to Swiss Prot Q86WV6); 6xHIS (N, cleaved yes); SUMO (N, cleaved yes); made in house; host or cells: Rosetta2 (DE3) E. coli
Description: (§1) Cells were grown in lysogeny broth at 37° C. until a […] absorbance of 0.6 was reached. […] Cell pellets were re-suspended on ice in a buffer containing 50 mM Tris hydrochloride (Tris-HCl) pH 7.5, 500 mM sodium chloride (NaCl), 20 mM imidazole, 10% glycerol, 1 mM tris(2-carboxyethyl)phosphine hydrochloride (TCEP) and protease inhibitor tablet (Pierce) (Buffer A). Cells were lysed using an S-450D sonifier (Emmerson industrial) on ice. […] Protein was aliquoted, flash frozen in liquid nitrogen and stored at −80° C. until use.
(§2) The protein is heated in the presence of a dye that binds to and fluoresces in hydrophobic environments. The protein is thermally denatured by heating resulting in increased dye binding to the unfolded protein and fluorescence. The temperature midpoint (Tm) of a proteins denaturation is established by calculating the half maximal value of the denaturation curve. The temperature midpoint of the protein in the presence of a ligand is directly related to the affinity of the ligand for the protein and therefore its ability to stabilize the protein at higher temperatures.
(§3) Each of wild type hSTING, HAQ allele hSTING and REF allele hSTING were used with each of the reference compounds and compounds of the invention as listed in Table 4. Samples were placed in hard shell PCR plate (Bio-Rad). The fluorescence as a function of temperature was recorded in a CFX 96 real time PCR machine (Bio-Rad) reading on the HEX channel, excitation 450-490, emission 560-580 nm. The temperature gradient was from 15-80° C. ramping 0.5° C. per 15 seconds and recording every 0.5° C. After subtraction of the background signal from a sample lacking protein and ligand. The midpoint temperature (Tm) was calculated by fitting the curves of the fluorescence as a function of temperature to a Boltzmann sigmoidal function (Graph Pad Prism).

hSTING HAQ allele = target: T2, hSTING HAQ allele (Homo sapiens, UniProt Q86WV6, G230A/H232R/R293Q); assay: Differential scanning fluorometry (DSF) binding to purified STING AA140-379, HAQ allele; conditions: ligand 1 mM, 1 mg/ml STING AA140-379
T2 construct: DNA encoding amino acids 140-379 (amino acid numbering corresponding to Swiss Prot Q86WV6); 6xHIS (N, cleaved yes); SUMO (N, cleaved yes); made in house; host or cells: Rosetta2 (DE3) E. coli
Description: as §1, §2, §3

hSTING REF allele = target: T3, hSTING REF allele (Homo sapiens, UniProt Q86WV6); assay: Differential scanning fluorometry (DSF) binding to purified STING AA140-379, REF allele; conditions: for hSTING Tm Shift REF: DSF, ligand 1 mM, 1 mg/ml STING AA140-379; for Tm shift compared with 2′3′-RR-(A)(A) and 2′3′-(G)(A): for the REF allele
T3 construct: DNA encoding amino acids 140-379 (amino acid numbering corresponding to Swiss Prot Q86WV6); 6xHIS (N, cleaved yes); SUMO (N, cleaved yes); made in house; host or cells: Rosetta2 (DE3) E. coli
Description: as §1, §2, §3

[1] = target: T4, hSTING HAQ allele in THP1-Dual cells (Homo sapiens, UniProt Q86WV6, G230A/H232R/R293Q/R71H); assay: THP1-Dual IRF-3 inducible secreted luciferase reporter assay (type I interferon activation), without digitonin; format: cell-based
T4 construct: a human monocyte cell line containing the hSTING HAQ allele; host or cells: THP1-Dual cells
Description: After 30 minutes, cells were washed and fresh RPMI media containing 10% FBS was added, and cells were incubated at 37° C. with 5% CO2 Cell culture supernatants from each sample were collected after overnight incubation, and 10 μL of the cell culture supernatants was added to 50 μL QUANTI-Luc reagent (Invivogen). Type I interferon activation was determined by measuring secreted luciferase levels on a SpectraMax M3 spectrophotometer (Molecular Devices).

T3 sequence (Q86WV6 140-379): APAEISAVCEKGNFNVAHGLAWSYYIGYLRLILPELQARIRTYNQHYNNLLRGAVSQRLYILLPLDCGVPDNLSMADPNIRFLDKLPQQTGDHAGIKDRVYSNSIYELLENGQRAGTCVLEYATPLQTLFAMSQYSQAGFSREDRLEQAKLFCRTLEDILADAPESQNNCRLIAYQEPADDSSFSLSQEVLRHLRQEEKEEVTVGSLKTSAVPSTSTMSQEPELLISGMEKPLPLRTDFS
T2 sequence (Q86WV6 140-379 G230A/H232R/R293Q limits assumed): as the sequence (Q86WV6 140-379) above, with G91A, H93R, R154Q counted along it
T1 sequence (Q86WV6 140-379 H232R limits assumed): as the sequence (Q86WV6 140-379) above, with H93R counted along it
T4 sequence (Q86WV6 whole entry R71H/G230A/H232R/R293Q): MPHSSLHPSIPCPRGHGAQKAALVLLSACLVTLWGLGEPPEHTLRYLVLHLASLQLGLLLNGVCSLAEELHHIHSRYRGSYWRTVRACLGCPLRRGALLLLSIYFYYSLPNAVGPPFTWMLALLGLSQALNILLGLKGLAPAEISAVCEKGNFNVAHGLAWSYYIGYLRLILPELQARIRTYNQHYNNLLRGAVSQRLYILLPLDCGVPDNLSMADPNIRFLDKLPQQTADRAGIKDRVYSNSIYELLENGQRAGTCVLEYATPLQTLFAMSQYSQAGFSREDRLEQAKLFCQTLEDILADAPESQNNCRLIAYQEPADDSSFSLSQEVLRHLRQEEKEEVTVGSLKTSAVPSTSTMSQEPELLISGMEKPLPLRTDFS

Row | Structure (SMILES) | hSTING Tm Shift WT (hSTING WT) | Tm shift compared with reference compound 2′3′-RR-(A)(A) (hSTING WT) | hSTING Tm Shift HAQ (hSTING HAQ allele) | hSTING Tm Shift REF (hSTING REF allele) | Tm shift compared with 2′3′-RR-(A)(A) and 2′3′-(G)(A) (hSTING REF allele) | EC50 [1] | Tm shift compared with natural ligand 2′3′-(G)(A) (hSTING WT)
1 | Nc1ncnc2c1ncn2[C@@H]1O[C@@H]2CO[P@@](=O)(S)O[C@H]3[C@H]4OC[C@]3(CO[P@@](=O)(S)O[C@@H]1[C@@H]2F)O[C@H]4n1cnc2c(N)ncnc21 [Compound 27a, dithio-(Rp,Rp)-cyclic-[3′F-A(2′,5′)p-2′O,4′C-LNA-A(3′,5′)p]] | 11.8 °C | comparable to or greater than that of the reference compound 2′3′-RR-(A)(A) | 18.2 °C | 10.2 °C | greater Tm shift than both 2′3′-RR-(A)(A) and 2′3′-(G)(A) | 10 µM | 
2 | Nc1ncnc2c1ncn2[C@@H]1O[C@@H]2CO[P@](=O)(S)O[C@H]3[C@H]4OC[C@]3(CO[P@@](=O)(S)O[C@@H]1[C@@H]2F)O[C@H]4n1cnc2c(N)ncnc21 [Compound 27b, dithio-(Rp,Sp)-cyclic-[3′F-A(2′,5′)p-2′O,4′C-LNA-A(3′,5′)p]] | 8.2 °C |  | 13.2 °C | 7.1 °C |  | 81 µM | 
3 | Nc1nc2c(ncn2[C@@H]2O[C@@]34CO[C@@H]2[C@@H]3O[P@](=O)(S)OC[C@H]2O[C@@H](n3cnc5c(N)ncnc53)[C@H](O)[C@@H]2O[P@](=O)(S)OC4)c(=O)[nH]1 [Compound 33a, 3′3′-RR-(A)(2′O,4′C-LNA-G)] | 18.36 °C | comparable to or greater than that of the reference compound 2′3′-RR-(A)(A) | 29.6 °C | 11.9 °C | greater Tm shift than both 2′3′-RR-(A)(A) and 2′3′-(G)(A) | 30.2 µM | greater Tm shift than the natural ligand 2′3′-(G)(A)
4 | Nc1nc2c(ncn2[C@@H]2O[C@@]34CO[C@@H]2[C@@H]3O[P@@](=O)(S)OC[C@H]2O[C@@H](n3cnc5c(N)ncnc53)[C@H](O)[C@@H]2O[P@](=O)(S)OC4)c(=O)[nH]1 [Compound 33b, 2-amino-9-((2R,3R,3 aS,5S,7aR,9R,10R,10aS,12R,14aR)-9-(6-amino-9H-purin-9-yl)-10-hydroxy-5,12-dimercapto-5,12-dioxidohexahydro-2H,7H,14H-3,14a-(epoxymethano)difuro[3,2-d:3′,2′-j][1,3,7,9]tetraoxa[2,8]diphosphacyclododecin-2-yl)-1,9-dihydro-6H-purin-6-one] | 13.2 °C | comparable to or greater than that of the reference compound 2′3′-RR-(A)(A) | 19.3 °C | 9.3 °C | greater Tm shift than both 2′3′-RR-(A)(A) and 2′3′-(G)(A) | 38 µM | 
5 | Nc1ncnc2c1ncn2[C@@H]1O[C@@H]2CO[P@@](=O)(S)O[C@H]3[C@H]4OC[C@]3(CO[P@@](=O)(S)O[C@@H]1[C@H]2F)O[C@H]4n1cnc2c(N)ncnc21 [Compound 37a, dithio-(RP,RP)-cyclic-[3′βF-A(2′,5′)p-2′O,4′C-LNA-A(3′,5′)p]] | 4.7 °C |  | 11.2 °C | 2.1 °C |  | 61.2 µM | 
6 | Nc1ncnc2c1ncn2[C@@H]1O[C@@H]2CO[P@](=O)(S)O[C@H]3[C@H]4OC[C@]3(CO[P@@](=O)(S)O[C@@H]1[C@H]2F)O[C@H]4n1cnc2c(N)ncnc21 [Compound 37b, dithio-(RP,SP)-cyclic-[3′βF-A(2′,5′)p-2′O,4′C-LNA-A(3′,5′)p]] | 1.8 °C |  | 6.8 °C | 0.5 °C |  | > 150 µM | 
7 | Nc1ncnc2c1ncn2[C@@H]1O[C@@H]2CO[P@@](=O)(S)O[C@H]3[C@H]4OC[C@]3(CO[P@](=O)(S)O[C@@H]1[C@H]2F)O[C@H]4n1cnc2c(N)ncnc21 [Compound 37c, dithio-(Sp,Rp)-cyclic-[3′βF-A(2′,5′)p-2′O,4′C-LNA-A(3′,5′)p]] | 1.2 °C |  | 5.7 °C | 0.8 °C |  | > 150 µM | 
8 | Nc1ncnc2c1ncn2[C@@H]1O[C@@H]2CO[P@](=O)(S)O[C@H]3[C@H]4OC[C@]3(CO[P@](=O)(S)O[C@@H]1[C@H]2F)O[C@H]4n1cnc2c(N)ncnc21 [Compound 37d, dithio-(SP,SP)-cyclic-[3′βF-A(2′,5′)p-2′O,4′C-LNA-A(3′,5′)p]] | −0.3 °C |  | 2.4 °C | −0.3 °C |  | > 150 µM | 
9 | Nc1nc2c(ncn2[C@@H]2O[C@@H]3CO[P@@](=O)(S)O[C@H]4[C@H]5OC[C@]4(CO[P@@](=O)(S)O[C@H]3[C@H]2O)O[C@H]5n2cnc3c(N)ncnc32)c(=O)[nH]1 [Compound 45a, 2-amino-9-((2R,3R,3aS,5R,7aR,9R,10R,10aS,12R,14aR)-2-(6-amino-9H-purin-9-yl)-10-hydroxy-5,12-dimercapto-5,12-dioxidohexahydro-2H,7H,14H-3,14a-(epoxymethano)difuro[3,2-d:3′,2′-j][1,3,7,9]tetraoxa[2,8]diphosphacyclododecin-9-yl)-1,9-dihydro-6H-purin-6-one] | 20.3 °C | comparable to or greater than that of the reference compound 2′3′-RR-(A)(A) | 34.0 °C | 13.1 °C | greater Tm shift than both 2′3′-RR-(A)(A) and 2′3′-(G)(A) | 5.8 µM | greater Tm shift than the natural ligand 2′3′-(G)(A)
10 | Nc1nc2c(ncn2[C@@H]2O[C@@H]3CO[P@](=O)(S)O[C@H]4[C@H]5OC[C@]4(CO[P@@](=O)(S)O[C@H]3[C@H]2O)O[C@H]5n2cnc3c(N)ncnc32)c(=O)[nH]1 [Compound 45b, 2-amino-9-((2R,3R,3aS,5S,7aR,9R,10R,10aS,12R,14aR)-2-(6-amino-9H-purin-9-yl)-10-hydroxy-5,12-dimercapto-5,12-dioxidohexahydro-2H,7H,14H-3,14a-(epoxymethano)difuro[3,2-d:3′,2′-j][1,3,7,9]tetraoxa[2,8]diphosphacyclododecin-9-yl)-1,9-dihydro-6H-purin-6-one] | 9.4 °C |  | 14.7 °C | 7.4 °C |  | 60 µM | 

From patent publication US11098077B2, “Locked nucleic acid cyclic dinucleotide compounds and uses thereof” (CHINOOK THERAPEUTICS, INC., priority 2016, dated 2021)
